# Test results reported in ChEMBL document CHEMBL1201862, “PubChem BioAssay data set” (2004).
#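 Cells were grown in 96-well plates and exposed to each compound for 48 hours at five concentrations; endpoints were interpolated linearly between bracketing concentrations, or set to the highest concentration if not reached. The concentration for 50% growth inhibition is given as GI50.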 Active and inactive are the calls of the source. Rule as the data show it: active = GI50 up to about 1.1 µM and inactive = higher.
# Assays:
# Assay in all cases: growth of human tumour cells (NCI), 48 h
# SK-MEL-2 = test system: SK-MEL-2
# HCT-116 = test system: HCT-116
# ACHN = test system: ACHN
# OVCAR-3 = test system: OVCAR-3
# SF-295 = test system: SF-295
# A498 = test system: A498
# OVCAR-8 = test system: OVCAR-8
# PC-3 = test system: PC-3
# SW-620 = test system: SW-620
# HOP-92 = test system: HOP-92
# BT-549 = test system: BT-549
# U-251 = test system: U-251
# MDA-MB-231 = test system: MDA-MB-231
# 786-0 = test system: 786-0
# NCI/ADR-RES = test system: NCI/ADR-RES
# OVCAR-4 = test system: OVCAR-4
# SN12C = test system: SN12C
# COLO 205 = test system: COLO 205
# SK-MEL-5 = test system: SK-MEL-5
SMILES,GI50 (SK-MEL-2),GI50 (HCT-116),GI50 (ACHN),GI50 (OVCAR-3),GI50 (SF-295),GI50 (A498),GI50 (OVCAR-8),GI50 (PC-3),GI50 (SW-620),GI50 (HOP-92),GI50 (BT-549),GI50 (U-251),GI50 (MDA-MB-231),GI50 (786-0),GI50 (NCI/ADR-RES),GI50 (OVCAR-4),GI50 (SN12C),GI50 (COLO 205),GI50 (SK-MEL-5)
COC(=O)c1ccc(CCC2=CC(=O)C=CC2=O)cc1,16.4 µM (inactive),7.8 µM (inactive),7.71 µM (inactive),6.85 µM (inactive),16.6 µM (inactive),18.7 µM (inactive),17.4 µM (inactive),12.1 µM (inactive),4.52 µM (inactive),4.43 µM (inactive),12 µM (inactive),11.2 µM (inactive),19.4 µM (inactive),2.41 µM (inactive),20.7 µM (inactive),17.7 µM (inactive),24.5 µM (inactive),7.03 µM (inactive),12.9 µM (inactive)
C=C1CC2(C)CCC(OC(=O)C3(C)OC3C)C(C)(OC(C)=O)C2CC1=C(C)C (stereo not given),> 100 µM (inactive),> 100 µM (inactive),> 100 µM (inactive),> 100 µM (inactive),> 100 µM (inactive),> 100 µM (inactive),> 100 µM (inactive),> 100 µM (inactive),> 100 µM (inactive),> 100 µM (inactive),> 100 µM (inactive),> 100 µM (inactive),> 100 µM (inactive),> 10 µM (inactive),> 100 µM (inactive),> 100 µM (inactive),> 100 µM (inactive),> 100 µM (inactive),> 100 µM (inactive)
CCCCSC1=N/C(=C\c2ccc(N(C)C)cc2)C(Cl)=N1,> 100 µM (inactive),> 100 µM (inactive),> 100 µM (inactive),> 100 µM (inactive),> 100 µM (inactive),78.2 µM (inactive),> 100 µM (inactive),76.6 µM (inactive),> 100 µM (inactive),> 100 µM (inactive),> 100 µM (inactive),> 100 µM (inactive),> 100 µM (inactive),> 100 µM (inactive),> 100 µM (inactive),> 100 µM (inactive),> 100 µM (inactive),> 100 µM (inactive),
OCC1C(O)C(O)[C@@H]2SCCN12 (stereo not given in full),> 100 µM (inactive),> 100 µM (inactive),> 100 µM (inactive),> 100 µM (inactive),> 100 µM (inactive),> 100 µM (inactive),> 100 µM (inactive),> 100 µM (inactive),> 100 µM (inactive),> 100 µM (inactive),> 100 µM (inactive),> 100 µM (inactive),> 100 µM (inactive),> 100 µM (inactive),> 100 µM (inactive),> 100 µM (inactive),,> 100 µM (inactive),> 100 µM (inactive)
CNc1ccc(C(=O)CC(O)CCC(C)C2OC(=O)CC(O)CC(=O)CC(O)CC(O)CC(O)CC(O)CC3(O)CC(O)C(C(=O)N4CCOCC4)C(CC(OC4OC(C)C(O)C(N)C4O)\C=C/C=C\C=C/C=C/C=C/C=C\C=C/C2C)O3)cc1 (stereo not given),0.421 µM (active),0.504 µM (active),0.19 µM (active),0.435 µM (active),0.446 µM (active),0.147 µM (active),0.376 µM (active),0.355 µM (active),0.475 µM (active),0.281 µM (active),0.241 µM (active),0.243 µM (active),0.236 µM (active),0.325 µM (active),0.43 µM (active),0.228 µM (active),0.229 µM (active),0.416 µM (active),0.181 µM (active)
CCCOC(=O)NC(C)C(=O)NC(CCC(=O)NC(CCCC(N)C(=O)O)C(=O)NC(C)C(=O)O)C(=O)O (stereo not given),54.2 µM (inactive),34.4 µM (inactive),42.9 µM (inactive),80.9 µM (inactive),16.6 µM (inactive),> 100 µM (inactive),17.9 µM (inactive),23.9 µM (inactive),23 µM (inactive),29.5 µM (inactive),20.7 µM (inactive),25.5 µM (inactive),19.3 µM (inactive),30.2 µM (inactive),19.2 µM (inactive),29.4 µM (inactive),50.8 µM (inactive),27.2 µM (inactive),15.7 µM (inactive)
CCOC(=O)C1=C(C)N(CC(C)C)C2(O)C(OC)CC(=O)C3C(=O)N(c4ccccc4)C(=O)C132 (stereo not given),20.4 µM (inactive),40.5 µM (inactive),24.9 µM (inactive),43.3 µM (inactive),52.4 µM (inactive),78.5 µM (inactive),26.1 µM (inactive),34 µM (inactive),34 µM (inactive),45.6 µM (inactive),40.4 µM (inactive),45.4 µM (inactive),89.1 µM (inactive),66.4 µM (inactive),53.8 µM (inactive),27.7 µM (inactive),36 µM (inactive),39 µM (inactive),20.1 µM (inactive)
OCC1CCCC1O (stereo not given),> 100 µM (inactive),> 100 µM (inactive),> 100 µM (inactive),> 100 µM (inactive),> 100 µM (inactive),> 100 µM (inactive),> 100 µM (inactive),> 100 µM (inactive),> 100 µM (inactive),> 100 µM (inactive),> 100 µM (inactive),> 100 µM (inactive),> 100 µM (inactive),> 100 µM (inactive),> 100 µM (inactive),> 100 µM (inactive),> 100 µM (inactive),> 100 µM (inactive),> 100 µM (inactive)
COC(=O)[C@H]1CO[C@@H](C(C)(C)C)N1C(=O)N1C=CC(=O)C[C@@H]1C,> 100 µM (inactive),> 100 µM (inactive),> 100 µM (inactive),> 100 µM (inactive),> 100 µM (inactive),> 100 µM (inactive),> 100 µM (inactive),> 100 µM (inactive),> 100 µM (inactive),> 100 µM (inactive),> 100 µM (inactive),> 100 µM (inactive),> 100 µM (inactive),> 100 µM (inactive),> 100 µM (inactive),,> 100 µM (inactive),> 100 µM (inactive),> 100 µM (inactive)
COc1cc(C23OCC(Cc4cc5c(cc42)OCO5)C3CO)cc(OC)c1OC (stereo not given),3.24 µM (inactive),2.89 µM (inactive),7.13 µM (inactive),1.46 µM (inactive),0.266 µM (active),5.61 µM (inactive),4.14 µM (inactive),1.85 µM (inactive),3.11 µM (inactive),> 100 µM (inactive),56.6 µM (inactive),2.94 µM (inactive),6.4 µM (inactive),3.09 µM (inactive),1.84 µM (inactive),41.1 µM (inactive),,2.55 µM (inactive),6.7 µM (inactive)
CN(C)CCOC1(CC2CCCCC2)CCC(C(C)(C)C)CC1 (stereo not given),6.44 µM (inactive),4.36 µM (inactive),7.57 µM (inactive),7.53 µM (inactive),4.32 µM (inactive),6.47 µM (inactive),6.82 µM (inactive),4.1 µM (inactive),4.12 µM (inactive),5.73 µM (inactive),6.19 µM (inactive),4.74 µM (inactive),4.18 µM (inactive),2.48 µM (inactive),9.62 µM (inactive),6.61 µM (inactive),6.46 µM (inactive),2.87 µM (inactive),2.3 µM (inactive)
